According to patent publication US20100093700A1, “Methods of Treating Mood Disorders” (priority 2007, published 2010):

Experiments:
[1] = target: T1, dopamine D2 receptor (Rattus norvegicus, UniProt P61169); assay: In-vitro binding, dopamine D2 receptor; details: dihydrochloride salt; read-out: binding affinity for dopamine D2 receptor (K1)
T1 construct: relative to dopamine (D2) receptors in the brain; from tissue; host or cells: brain

[2] = target: brain serotonin 5-HT2 receptor (UniProt P14842); assay: In-vitro binding, brain serotonin 5-HT2 receptor; details: dihydrochloride salt; read-out: binding affinity for brain serotonin 5-HT2 receptor (K1)
[3] = target: T2, dopamine D1 receptor (Rattus norvegicus, UniProt P18901); assay: In-vitro binding, dopamine D1 receptor; details: dihydrochloride salt; read-out: binding affinity for dopamine D1 receptor (K1)
T2 construct: from tissue; host or cells: brain
T2 sequence (P18901 whole entry): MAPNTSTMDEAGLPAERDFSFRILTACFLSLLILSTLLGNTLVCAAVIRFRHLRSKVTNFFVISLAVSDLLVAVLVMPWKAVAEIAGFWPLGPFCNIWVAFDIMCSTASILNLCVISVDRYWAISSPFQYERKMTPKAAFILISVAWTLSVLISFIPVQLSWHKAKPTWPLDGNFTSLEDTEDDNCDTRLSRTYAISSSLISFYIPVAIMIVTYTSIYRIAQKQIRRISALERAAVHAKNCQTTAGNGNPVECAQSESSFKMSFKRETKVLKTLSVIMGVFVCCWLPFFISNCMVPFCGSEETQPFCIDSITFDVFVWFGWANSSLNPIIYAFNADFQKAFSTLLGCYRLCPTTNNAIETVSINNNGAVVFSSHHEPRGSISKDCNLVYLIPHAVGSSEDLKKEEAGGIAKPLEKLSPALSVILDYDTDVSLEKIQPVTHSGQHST

[4] = system: apomorphine climbing; assay: Standard apomorphine climbing mouse assay; assay type: in vivo; details: mice, p.o.
From the text: (§1) An assessment of dopamine antagonism was made in rodent models.

[5] = system: immobility; assay: Tail suspension test; assay type: in vivo, mice; details: for reduction of immobility relative to vehicle control group: p<0.01
Description: In a first experiment, mice (n−10/group) were treated with vehicle, 2.0, 5.0, or 10.0 mg/kg of 11-piperazin-1-yldibenzo[b,f][1,4]thiazepine s.c. 15 minutes prior to the test session. Mice were suspended from their tails for 7 minutes. During the last 5 minutes of the test, the duration of immobility was recorded. In a second experiment, mice (n=10/group) were treated with vehicle, 30 mg/kg 11-piperazin-1-yldibenzo[b,f][1,4]thiazepine, or 30 mg/kg fluoxetine p.o. 60 minutes prior to the test session. Mice were suspended from their tails for 7 minutes. During the last 5 minutes of the test, the duration of immobility was recorded.

[6] = system: immobility; assay: Mouse forced swim test (FST); assay type: in vivo; details: 15 minutes prior
Description: The mouse forced swim test (FST) has been used to assess antidepressant potential of novel compounds (Porsolt; Lucki). Methods: Mice were placed in cylinders of water (25.0° C.±1.5° C.) for 6 minutes. The amount of immobility was quantified during the last 4 min of each session. The experimental observer was blind to the treatment conditions. […] Imipramine 45.0 mg/kg and citalopram 15.0 mg/kg were measured as the salt and administered ip 60 minutes prior to the behavioral session.

[7] = target: T3, Adrenergic α1B (Rattus norvegicus, UniProt P15823); assay: Radioligand binding 203200 Adrenergic α1B
T3 construct: 203200
T3 sequence (P15823 whole entry): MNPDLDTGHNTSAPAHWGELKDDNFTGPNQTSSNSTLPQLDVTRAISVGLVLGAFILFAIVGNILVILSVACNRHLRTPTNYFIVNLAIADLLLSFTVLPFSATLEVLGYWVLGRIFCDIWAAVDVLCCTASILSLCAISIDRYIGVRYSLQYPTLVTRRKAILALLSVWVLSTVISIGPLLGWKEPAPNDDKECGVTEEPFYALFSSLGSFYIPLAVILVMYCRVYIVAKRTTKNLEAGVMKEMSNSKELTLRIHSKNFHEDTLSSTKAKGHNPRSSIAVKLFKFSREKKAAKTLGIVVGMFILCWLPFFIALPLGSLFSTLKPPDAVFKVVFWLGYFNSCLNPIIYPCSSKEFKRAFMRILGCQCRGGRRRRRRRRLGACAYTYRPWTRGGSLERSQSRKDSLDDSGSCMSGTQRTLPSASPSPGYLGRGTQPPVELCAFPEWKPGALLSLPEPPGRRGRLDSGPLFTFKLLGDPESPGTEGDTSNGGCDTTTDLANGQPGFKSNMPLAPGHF
From the text: (§2) Receptor binding methods, α-adrenergic subtype specific, are provided below.

[8] = target: Adrenergic α2C (Homo sapiens, UniProt P18825); assay: Radioligand binding Adrenergic α2C; details: hum
Adrenergic α2C, sequence (P18825 whole entry): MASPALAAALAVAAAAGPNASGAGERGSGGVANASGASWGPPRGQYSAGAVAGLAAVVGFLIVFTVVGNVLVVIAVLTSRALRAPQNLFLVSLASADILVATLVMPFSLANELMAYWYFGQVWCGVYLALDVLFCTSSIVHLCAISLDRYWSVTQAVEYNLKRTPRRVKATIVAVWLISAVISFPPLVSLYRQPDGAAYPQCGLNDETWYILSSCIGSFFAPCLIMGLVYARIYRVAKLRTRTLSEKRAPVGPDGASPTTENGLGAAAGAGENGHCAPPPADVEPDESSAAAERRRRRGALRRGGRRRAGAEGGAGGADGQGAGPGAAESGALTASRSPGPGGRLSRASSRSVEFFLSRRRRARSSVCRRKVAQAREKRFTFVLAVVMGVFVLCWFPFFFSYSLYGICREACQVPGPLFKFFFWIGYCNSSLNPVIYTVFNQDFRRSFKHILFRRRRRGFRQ

[9] = target: Adrenergic α2B (Homo sapiens, UniProt P18089); assay: Radioligand binding Adrenergic α2B; details: hum
[10] = target: Adrenergic α2A (Homo sapiens, UniProt P08913); assay: Radioligand binding Adrenergic α2A; details: hum
[11] = Oral bioavailability in dogs; assay type: in vivo; details: dog, plasma, Beagle dogs
[12] = system: Adrenergic α2* Non-Selective; assay: Radioligand binding 203900 Adrenergic α2 Non-Selective; details: rat
From the text: (§3) Receptor binding methods, α-adrenergic nonselective, are provided below.

[13] = target: T4, 5HT Transporter (Homo sapiens, UniProt P31645); assay: PET scans of primate subjects, 5HT Transporter; assay type: in vivo; details: preliminary PET
T4 construct: from tissue; host or cells: brain of living primates (PET)
T4 sequence (P31645 whole entry, species assumed): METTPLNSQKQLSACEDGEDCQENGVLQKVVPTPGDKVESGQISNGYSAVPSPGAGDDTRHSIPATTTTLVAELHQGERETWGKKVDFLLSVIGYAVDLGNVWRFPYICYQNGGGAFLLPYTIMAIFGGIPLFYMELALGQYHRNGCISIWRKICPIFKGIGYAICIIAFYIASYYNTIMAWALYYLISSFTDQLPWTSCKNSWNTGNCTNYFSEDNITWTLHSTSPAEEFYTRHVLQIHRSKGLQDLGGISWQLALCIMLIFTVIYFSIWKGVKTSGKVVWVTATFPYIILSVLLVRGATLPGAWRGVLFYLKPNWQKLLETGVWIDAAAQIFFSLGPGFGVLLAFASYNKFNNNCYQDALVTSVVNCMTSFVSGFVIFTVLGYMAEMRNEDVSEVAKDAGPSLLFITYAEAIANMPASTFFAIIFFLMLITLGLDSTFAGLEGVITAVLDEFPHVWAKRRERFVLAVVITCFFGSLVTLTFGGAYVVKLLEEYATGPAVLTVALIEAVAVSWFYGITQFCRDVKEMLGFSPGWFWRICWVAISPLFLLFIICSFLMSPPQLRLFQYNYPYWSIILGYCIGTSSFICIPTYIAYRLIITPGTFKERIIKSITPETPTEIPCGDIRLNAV
From the text: (§4) The compound of Formula I is a dibenzothiazepine that has shown antidopaminergic activity.

[14] = Oral bioavailability in monkeys; assay type: in vivo; details: cynomolgus monkey, plasma
[15] = target: D2 receptors (Homo sapiens, UniProt P14416); assay: PET scans of primate subjects, D2; assay type: in vivo; details: preliminary PET
D2 receptors, sequence (P14416 whole entry): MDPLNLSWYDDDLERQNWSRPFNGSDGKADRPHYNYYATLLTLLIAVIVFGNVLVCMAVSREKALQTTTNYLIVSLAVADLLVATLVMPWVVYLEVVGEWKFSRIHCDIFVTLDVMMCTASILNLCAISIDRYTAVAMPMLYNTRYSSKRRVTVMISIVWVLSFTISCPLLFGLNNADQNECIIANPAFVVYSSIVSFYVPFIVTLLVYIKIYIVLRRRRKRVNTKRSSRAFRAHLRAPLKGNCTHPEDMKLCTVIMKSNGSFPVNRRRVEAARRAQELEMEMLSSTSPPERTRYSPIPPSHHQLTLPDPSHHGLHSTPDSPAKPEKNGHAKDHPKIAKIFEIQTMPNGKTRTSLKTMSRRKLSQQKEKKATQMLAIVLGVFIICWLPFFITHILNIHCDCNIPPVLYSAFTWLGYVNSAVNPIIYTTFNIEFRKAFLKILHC

[16] = system: D-amphetamine locomotor activity; assay: D-amphetamine locomotor activity test; assay type: in vivo, rat; details: rats, s.c., freebase
From the text: as §1

[17] = target: T5, 5-HT2A receptors (Homo sapiens, UniProt P28223); assay: PET scans of primate subjects, 5-HT2A; assay type: in vivo; details: preliminary PET
T5 construct: from tissue; host or cells: brain of living primates (PET)
From the text: as §4

[18] = target: T6, D1 receptors (Homo sapiens, UniProt P21728); assay: PET scans of primate subjects, D1; assay type: in vivo; details: preliminary PET
T6 construct: from tissue; host or cells: brain of living primates (PET)
T6 sequence (P21728 whole entry): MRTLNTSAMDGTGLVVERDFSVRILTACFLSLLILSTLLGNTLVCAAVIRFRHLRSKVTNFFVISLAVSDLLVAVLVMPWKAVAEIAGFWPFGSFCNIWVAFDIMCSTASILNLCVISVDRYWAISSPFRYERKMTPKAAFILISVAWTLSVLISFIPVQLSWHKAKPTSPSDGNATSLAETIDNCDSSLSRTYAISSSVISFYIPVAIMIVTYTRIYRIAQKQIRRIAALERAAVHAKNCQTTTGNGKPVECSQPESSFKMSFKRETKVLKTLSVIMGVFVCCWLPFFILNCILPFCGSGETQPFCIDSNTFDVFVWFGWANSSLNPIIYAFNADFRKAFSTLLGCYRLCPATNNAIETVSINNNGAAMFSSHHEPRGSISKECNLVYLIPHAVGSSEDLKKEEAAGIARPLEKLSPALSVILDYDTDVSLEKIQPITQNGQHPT
From the text: as §4

[19] = target: T7, 5-HT1A receptors (Homo sapiens, UniProt P08908); assay: PET scans of primate subjects, 5-HT1A; assay type: in vivo; details: preliminary PET
T7 construct: from tissue; host or cells: brain of living primates (PET)
T7 sequence (P08908 whole entry): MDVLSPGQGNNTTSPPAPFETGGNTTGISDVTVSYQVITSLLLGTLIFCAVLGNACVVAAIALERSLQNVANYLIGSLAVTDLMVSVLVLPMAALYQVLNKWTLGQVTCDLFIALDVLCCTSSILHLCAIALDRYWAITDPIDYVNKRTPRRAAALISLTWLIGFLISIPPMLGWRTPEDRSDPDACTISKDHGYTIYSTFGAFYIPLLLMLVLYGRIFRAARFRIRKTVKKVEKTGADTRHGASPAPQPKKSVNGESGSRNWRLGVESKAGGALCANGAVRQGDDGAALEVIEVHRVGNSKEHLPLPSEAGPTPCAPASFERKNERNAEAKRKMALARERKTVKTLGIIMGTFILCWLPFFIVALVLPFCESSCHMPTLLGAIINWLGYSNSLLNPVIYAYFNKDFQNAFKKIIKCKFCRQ
From the text: as §4

[20] = system: Adrenergic α1* Non-Selective; assay: Radioligand binding 203500 Adrenergic α1 Non-Selective; details: rat
From the text: as §3

[21] = target: T8, Adrenergic α1D (Homo sapiens, UniProt P25100); assay: Radioligand binding 203400 Adrenergic α1D; details: hum
T8 construct: host or cells: HEK-293
T8 sequence (P25100 whole entry): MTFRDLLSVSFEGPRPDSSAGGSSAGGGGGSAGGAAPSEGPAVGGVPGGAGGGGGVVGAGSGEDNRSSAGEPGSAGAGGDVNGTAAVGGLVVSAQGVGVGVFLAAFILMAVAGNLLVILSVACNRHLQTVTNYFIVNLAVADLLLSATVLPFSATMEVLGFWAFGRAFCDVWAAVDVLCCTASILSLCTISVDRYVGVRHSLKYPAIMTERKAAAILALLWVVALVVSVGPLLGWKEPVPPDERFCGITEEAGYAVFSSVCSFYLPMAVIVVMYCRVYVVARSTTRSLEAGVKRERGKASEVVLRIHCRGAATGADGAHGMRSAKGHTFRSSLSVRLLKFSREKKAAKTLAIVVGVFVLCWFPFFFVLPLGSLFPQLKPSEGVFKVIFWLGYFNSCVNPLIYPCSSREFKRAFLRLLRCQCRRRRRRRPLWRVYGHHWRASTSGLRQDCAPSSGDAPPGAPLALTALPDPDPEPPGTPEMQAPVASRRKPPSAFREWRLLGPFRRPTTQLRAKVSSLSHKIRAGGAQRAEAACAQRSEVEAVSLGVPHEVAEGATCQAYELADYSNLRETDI
From the text: as §2

[22] = Brain exposure in rats; assay type: in vivo; details: one hour after 30 μmol/kg po
Description: Brain exposure was measured in rats. For concentrations of 11-piperazin-1-yldibenzo[b,f][1,4]thiazepine in brain, rats were dosed either po or iv (n=3 per dose route). At one hour after compound administration, blood and brain samples were obtained and then processed for analysis using HPLC/MS to measure concentrations of 11-piperazin-1-yldibenzo[b,f][1,4]thiazepine.

[23] = target: T9, Adrenergic α1A (Rattus norvegicus, UniProt P43140); assay: Radioligand binding 203100 Adrenergic α1A
T9 construct: 203100
T9 sequence (P43140 whole entry): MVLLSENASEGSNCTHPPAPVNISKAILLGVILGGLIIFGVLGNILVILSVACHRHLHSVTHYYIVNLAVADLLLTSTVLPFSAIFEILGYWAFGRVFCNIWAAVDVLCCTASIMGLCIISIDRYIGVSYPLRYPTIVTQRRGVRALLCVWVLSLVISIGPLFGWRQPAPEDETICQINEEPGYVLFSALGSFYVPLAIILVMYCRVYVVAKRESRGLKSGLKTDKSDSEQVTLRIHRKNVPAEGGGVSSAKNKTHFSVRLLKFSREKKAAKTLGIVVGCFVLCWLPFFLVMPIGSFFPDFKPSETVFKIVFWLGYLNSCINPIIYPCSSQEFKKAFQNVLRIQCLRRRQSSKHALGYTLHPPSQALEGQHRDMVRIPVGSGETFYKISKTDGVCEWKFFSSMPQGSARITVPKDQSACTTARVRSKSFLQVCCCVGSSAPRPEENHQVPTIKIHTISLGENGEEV
From the text: as §2

[24] = target: Uptake, Norepinephrine (Homo sapiens, UniProt P23975); assay: Functional assay measuring norepinephrine uptake; assay type: cell-based; details: [3H]Norepinephrine uptake, MDCK cells; read-out: EC50/IC50
Description: The following examples set forth parameters for the functional assay measuring norepinephrine uptake that was carried out.

[25] = target: Transporter, Norepinephrine (NET) (Homo sapiens, UniProt P23975); assay: Radioligand binding assay, norepinephrine transporter
Description: The following examples set forth parameters for the radioligand binding assay that was carried out.

[26] = 30 mg/kg p.o., 60 minutes prior

T1 sequence (P61169 whole entry): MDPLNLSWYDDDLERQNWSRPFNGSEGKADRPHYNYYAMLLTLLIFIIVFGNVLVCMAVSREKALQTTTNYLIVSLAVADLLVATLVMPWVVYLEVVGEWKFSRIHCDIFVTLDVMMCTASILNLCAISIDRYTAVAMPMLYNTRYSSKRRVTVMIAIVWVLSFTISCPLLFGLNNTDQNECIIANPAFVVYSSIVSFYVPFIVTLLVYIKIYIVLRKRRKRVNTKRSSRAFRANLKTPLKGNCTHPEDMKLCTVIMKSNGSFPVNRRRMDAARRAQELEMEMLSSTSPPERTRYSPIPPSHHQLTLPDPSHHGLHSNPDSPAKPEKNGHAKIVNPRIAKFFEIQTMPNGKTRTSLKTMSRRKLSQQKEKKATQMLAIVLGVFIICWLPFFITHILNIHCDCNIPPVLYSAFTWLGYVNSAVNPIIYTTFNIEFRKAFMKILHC

## Cl.Cl.c1ccc2c(c1)N=C(N1CCNCC1)c1ccccc1S2 [11-piperazin-1-yldibenzo[b,f][1,4]thiazepine, dihydrochloride salt]
[1]
  Ki: 234 nM
[2]
  Ki: 27 nM
[3]
  Ki: 1490 nM
[4]
  in vivo antipsychotic activity, apomorphine mouse assay: not found to be efficacious

## CNCCC(Oc1ccc(C(F)(F)F)cc1)c1ccccc1 (centres unmarked) [fluoxetine, reference compound]
[5]; [26]
  reduction of immobility relative to vehicle control group: more than ½

## OCCOCCN1CCN(C2=Nc3ccccc3Sc3ccccc32)CC1 [Quetiapine, quetiapine, reference compound]
[6]; 5.0, 10.0 and 20.0 mg/kg sc
  effect on immobility in FST: no effect

## c1ccc2c(c1)N=C(N1CCNCC1)c1ccccc1S2 [11-piperazin-1-yldibenzo[b,f][1,4]thiazepine]
[7]
  n (Hill coefficient): 1.1 ± 0.024
[8]
  n (Hill coefficient): 1.1 ± 0.079
[9]
  n (Hill coefficient): 0.902 ± 0.055
[6]; 10.0 mg/kg sc
  effect on immobility in FST: antidepressant effects in this assay comparable to imipramine
[10]
  n (Hill coefficient): 0.969 ± 0.012
[11]
  bioavailability: 42%
[12]; 10 μM
  % INH.: 73%
[12]
  IC50: 1410 nM
  Ki: 1290 nM
[13]
  occupancy (PET), 5HT Transporter: occupies
[14]
  bioavailability: 37%
[15]
  receptor occupancy (PET), D2: occupies
[5]; 10.0 mg/kg s.c.
  reduction of immobility relative to vehicle control group: more than ½
[5]; [26]
  reduction of immobility relative to vehicle control group: more than ½
[5]; 2.0, 5.0 or 10.0 mg/kg s.c., 15 minutes prior
  effect on duration of immobility: reduced immobility at all doses tested
[16]
  in vivo antipsychotic activity, D-amphetamine locomotor activity test: not found to be efficacious
[16]; listed as Formula I
  in vivo antipsychotic activity, D-amphetamine locomotor activity test: not shown to be efficacious
[17]
  receptor occupancy (PET), 5-HT2A: occupies
[18]
  receptor occupancy (PET), D1: occupies
[19]
  receptor occupancy (PET), 5-HT1A: occupies
[20]; 0.1 μM
  % INH.: 61%
[20]
  IC50: 69.3 nM
  Ki: 37.2 nM
[21]
  n (Hill coefficient): 0.984 ± 0.111
[22]
  average concentration in brain tissue: 2240 nmol/g
[4]
  in vivo antipsychotic activity, apomorphine mouse assay: not shown to be efficacious
[23]
  n (Hill coefficient): 1.03 ± 0.089
[24]
  IC50: 13.4 nM
[25]
  inhibition at 10 µM: 97%
